Source: patent publication US5962493A, “2-mercaptobenzimidazole derivatives and antihyperlipemic agent or antiarteriosclerotic agent containing the same” (priority 1997, dated 1999)
Where two headings read alike, the source gives them in different places.

Assays:
[1] = test system: mouse peritoneal macrophage; details: dose 5 μM, microscopic observation
[2] = test system: mouse peritoneal macrophage; experiment: In vitro tests on inhibition of foaming of macrophage with mouse peritoneal macrophage (cholesteryl ester formation); type: cell-based, mouse (female ICR); details: 16 hours at 37° C., read-out: CE (%) (cholesteryl ester-forming rate, ratio to the control)
Experimental: (1) In vitro tests on inhibition of foaming of macrophage with mouse peritoneal macrophage:
The necks of 15-week old female ICR mice (Japan SLC) were cut off. After blood-letting, Hanks buffer solution (Nissui Seiyaku Co., Ltd.) was injected into the abdominal cavity of each mouse. The abdomen was massaged and then the buffer solution was rapidly recovered, centrifuged at 1000 rotations for 5 minutes to collect the peritoneal macrophages. The peritoneal macrophases thus collected were then suspended in GIT medium (Wako Pure Chemical Industries, Ltd.), and the suspension was spread on a 24-hole microplate. After the cultivation at 37° C. in 5% CO2 for 2 hours, the medium was replaced with a Dulbecoo Modified Eagle's MEM medium (Nissui Seiyaku Co., Ltd.). After the cultivation at 37° C. in 5% CO2 for additional 16 hours, the following substances were added in the following order:
(1) subject: dissolved in DMSO (Wako Pure Chemical Industries, Ltd.)
PC: phosphatidyl choline (a product of Funakoshi)
PS: phosphatidyl serine (ditto)
DCP: dicetyl phosphate (ditto)
CHOL.: cholesterol (Sigma).
After further cultivation at 37° C. in 5% CO2 for 16 hours, the lipid fraction was extracted with chloroform and methanol. The lipid fraction thus extracted was dissolved in isopropyl alcohol, and the formed cholesteryl ester (CE) was determined by an enzymatic coloring method. The cholesteryl ester-forming rate of each compound was calculated in terms of the ratio thereof to the control. The cytotoxicity was examined by microscopic observation of the shape of the cell.
The pharmacological effects of the compounds given in Table 2 were evaluated in the same manner as that of Example 3.

Compound	Cytotoxicity ([1]; Table 1)	activity at 5 µM ([2]; Table 1, ratio to control) [%]	Cytotoxicity ([1]; Table 2)	further results
c1ccc2[nH]c(SCCOCCSc3nc4ccccc4[nH]3)nc2c1 [Compound (1)]	none	25		
CCCC(=O)n1c(SCCOCCSc2nc3ccccc3n2C(=O)CCC)nc2ccccc21 [Compound (3)]	none	15		
CCCCCC(=O)n1c(SCCOCCSc2nc3ccccc3n2C(=O)CCCCC)nc2ccccc21 [Compound (5)]	none	20		
CCCCCCCC(=O)n1c(SCCOCCSc2nc3ccccc3n2C(=O)CCCCCCC)nc2ccccc21 [Compound (6)]	none	26		
CCCCCCCCCCCCCC(=O)n1c(SCCOCCSc2nc3ccccc3n2C(=O)CCCCCCCCCCCCC)nc2ccccc21 [Compound (7)]	none	74		
CCCn1c(SCCOCCSc2nc3ccccc3n2CCC)nc2ccccc21 [Compound (8)]	none	16		
CCCCCCCCn1c(SCCOCCSc2nc3ccccc3n2CCCCCCCC)nc2ccccc21 [Compound (9)]	none	28		
c1ccc(Cn2c(SCCOCCSc3nc4ccccc4n3Cc3ccccc3)nc3ccccc32)cc1 [Compound (10)]	none	76		
Cc1ccc2[nH]c(SCCOCCSc3nc4cc(C)ccc4[nH]3)nc2c1 [Compound (11)]	none	38		
Cc1cc2nc(SCCOCCSc3nc4cc(C)c(C)cc4[nH]3)[nH]c2cc1C [Compound (13)]	none	45		
Clc1ccc2[nH]c(SCCOCCSc3nc4cc(Cl)ccc4[nH]3)nc2c1 [Compound (14)]	none	18		
Clc1cc2nc(SCCOCCSc3nc4cc(Cl)c(Cl)cc4[nH]3)[nH]c2cc1Cl [Compound (16)]	none	46		
CCC(=O)n1c(SCCOCCSc2nc3cc(Cl)c(Cl)cc3n2C(=O)CC)nc2cc(Cl)c(Cl)cc21 [Compound (17)]	none	27		
O=[N+]([O-])c1ccc2[nH]c(SCCOCCSc3nc4cc([N+](=O)[O-])ccc4[nH]3)nc2c1 [Compound (18)]	none	10		
c1ccc2[nH]c(SCCOCCOCCSc3nc4ccccc4[nH]3)nc2c1 [Compound (19)]	none	11		
CCC(=O)n1c(SCCOCCOCCSc2nc3ccccc3n2C(=O)CC)nc2ccccc21 [Compound (20)]	none	69		
CCCn1c(SCCOCCOCCSc2nc3ccccc3n2CCC)nc2ccccc21 [Compound (21)]	none	23		
c1ccc2[nH]c(SCCOCCOCCOCCSc3nc4ccccc4[nH]3)nc2c1 [Compound (22)]	none	22		
Cc1ccc2[nH]c(SCCCCCSc3nc4cc(C)ccc4[nH]3)nc2c1 [Compound I-1, 1,5-bis(5-methyl-2-benzimidazoylthio)pentane]			none	
Cc1cc2nc(SCCCCCSc3nc4cc(C)c(C)cc4[nH]3)[nH]c2cc1C [Compound I-2, 1,5-bis(5,6-dimethyl-2-benzimidazoylthio)pentane]			none	
Clc1ccc2[nH]c(SCCCCCSc3nc4cc(Cl)ccc4[nH]3)nc2c1 [Compound I-3, 1,5-bis(5-chloro-2-benzimidazoylthio)pentane]			none	
Clc1cc2nc(SCCCCCSc3nc4cc(Cl)c(Cl)cc4[nH]3)[nH]c2cc1Cl [Compound I-4, 1,5-bis(5,6-dichloro-2-benzimidazoylthio)Pentane]			none	
CC(=O)n1c(SCCCCCSc2nc3ccccc3n2C(C)=O)nc2ccccc21 [II-1, 1,5-bis(1-acetyl-2-benzimidazoylthio)pentane]			none	
CCC(=O)n1c(SCCCCCSc2nc3ccccc3n2C(=O)CC)nc2ccccc21 [II-2, 1,5-bis(1-propionyl-2-benzimidazoylthio)pentane]			none	

Compound	Cytotoxicity ([1]; Table 1)	activity at 5 µM ([2]; Table 1, ratio to control) [%]	Cytotoxicity ([1]; Table 2)	further results
CCCCC(CC)C(=O)n1c(SCCCCCSc2nc3ccccc3n2C(=O)C(CC)CCCC)nc2ccccc21 (stereo not shown) [II-4, 1,5-bis(1-(2-ethylhexanoyl)-2-benzimidazoylthio) pentane]			none	
O=C(c1ccc(Cl)cc1)n1c(SCCCCCSc2nc3ccccc3n2C(=O)c2ccc(Cl)cc2)nc2ccccc21 [II-6, 1,5-bis(1-(4-chlorobenzoyl)-2-benzimidazoylthio) pentane]			none	
CCC(=O)n1c(SCCCCSc2nc3ccccc3n2C(=O)CC)nc2ccccc21 [II-9, 1,4-bis(1-propionyl-2-benzimidazoylthio)butane]			none	
CCC(=O)n1c(SCCCCCCSc2nc3ccccc3n2C(=O)CC)nc2ccccc21 [II-10, 1,6-bis(1-propionyl-2-benzimidazoylthio)hexane]			none	
CCC(=O)n1c(SCCCCCCCCSc2nc3ccccc3n2C(=O)CC)nc2ccccc21 [II-11, 1,8-bis(1-propionyl-2-benzimidazoyl-thio)octane]			none	
CCC(=O)n1c(SCc2ccc(CSc3nc4ccccc4n3C(=O)CC)cc2)nc2ccccc21 [II-12, 1,4-bis(1-propionyl-2-benzimidazoylthiomethyl)benzene]			none	
CCC(=O)n1c(SCc2cccc(CSc3nc4ccccc4n3C(=O)CC)c2)nc2ccccc21 [II-13, 1,3-bis(1-propionyl-2-benzimidazoylthiomethyl)benzene]			none	
CCC(=O)n1c(SCCCCCSc2nc3cc(C)c(C)cc3n2C(=O)CC)nc2cc(C)c(C)cc21 [II-15, 1,5-bis(5,6-dimethyl-1-propionyl-2-benzimidazoylthio) pentane]			none	
CCC(=O)n1c(SCCCCCSc2nc3ccc(Cl)cc3n2C(=O)CC)nc2cc(Cl)ccc21 [II-20, 1-(5-chloro-1-propionyl-2-benzimidazoylthio)-5-(6-chloro-1-propionyl-2-benzimidazoylthio)pentane]			none	
Cn1c(SCCCCCSc2nc3ccccc3n2C)nc2ccccc21 [II-28, 1,5-bis(1-methyl-2-benzimidazoylthio)pentane]			none	
CCCn1c(SCCCCCSc2nc3ccccc3n2CCC)nc2ccccc21 [II-29, 1,5-bis(1-propyl-2-benzimidazoylthio)pentane]			none	
CCCCCCCCn1c(SCCCCCSc2nc3ccccc3n2CCCCCCCC)nc2ccccc21 [II-30, 1,5-bis(l-octyl-2-benzimidazoylthio)pentane]			none	
CCCCC(CC)Cn1c(SCCCCCSc2nc3ccccc3n2CC(CC)CCCC)nc2ccccc21 (stereo not shown) [II-31, 1,5-bis(1-(2-ethylhexyl)-2-benzimidazoylthio)pentane]			none	
c1ccc(Cn2c(SCCCCCSc3nc4ccccc4n3Cc3ccccc3)nc3ccccc32)cc1 [II-32, 1.5-bis(1-benzyl-2-benzimidazoylthio)pentane]			none	
Cn1c(SCCCCCSc2nc3cc(Cl)c(Cl)cc3n2C)nc2cc(Cl)c(Cl)cc21 [II-33, 1,5-bis(5,6-dichloro-1-methyl-2-benzimidazoylthio) pentane]			none	
CCCn1c(SCCCCCSc2nc3cc(Cl)c(Cl)cc3n2CCC)nc2cc(Cl)c(Cl)cc21 [II-34, 1,5-bis(5,6-dichloro-1-propyl-2-benzimidazoylthio) pentane]			none	
Cn1c(SCCCCCCCCSc2nc3ccccc3n2C)nc2ccccc21 [II-35, 1,8-bis(1-methyl-2-benzimidazoylthio)octane]			none	
c1ccc2[nH]c(SCCCCCCSc3nc4ccccc4[nH]3)nc2c1 [IV-1, 1,6-bis(2-benzimidazoylthio)hexane]			none	activity at 5 µM ([2]; Table 2, ratio to control): 28%
c1ccc2[nH]c(SCCCCSc3nc4ccccc4[nH]3)nc2c1 [IV-3, 1,4-bis(2-benzimidazoylthio)butane]			none	
COc1ccc2[nH]c(SCCCCCSc3nc4cc(OC)ccc4[nH]3)nc2c1 [IV-4, 1,5-bis(5-methoxyl-2-benzimidazoylthio)pentane]			none	
O=[N+]([O-])c1ccc2[nH]c(SCCCCCSc3nc4cc([N+](=O)[O-])ccc4[nH]3)nc2c1 [IV-5, 1,5-bis(5-nitro-2-benzimidazoylthio)pentane]			none	
CCC(=O)Nc1ccc2[nH]c(SCCCCCSc3nc4cc(NC(=O)CC)ccc4[nH]3)nc2c1 [IV-8, 1,5-bis(5-propanamido-2-benzimidazoylthio)pentane]			none	
c1ccc2[nH]c(SCc3ccc(CSc4nc5ccccc5[nH]4)cc3)nc2c1 [IV-13, 1,4-bis(2-benzimidazoylthiomethyl)benzene]			none	
c1cc(CSc2nc3ccccc3[nH]2)cc(CSc2nc3ccccc3[nH]2)c1 [IV-14, 1,3-bis(2-benzimidazoylthiomethyl)benzene]			none	
